Measured values: patent publication US10597388B2, “Pyridazinone herbicides” (FMC CORPORATION, priority 2014, dated 2020)

Assays:
Assay in all cases: Test D controlled growth environment herbicide test, pre- and postemergence
Format in all cases: in vivo
[1] = test system: galium (catchweed bedstraw, Galium aparine)
Method in brief: (§1)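 Species sown in silt loam and sprayed preemergence, or grown in peat-based medium to 2–18 cm (1- to 4-leaf stage) and sprayed postemergence, with compounds in non-phytotoxic solvent plus surfactant. Visual injury scored versus controls after 14–21 d in a controlled environment, 0 (no effect) to 100 (complete control).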

[2] = test system: chickweed (common chickweed, Stellaria media)
Method in brief: as §1

[3] = test system: windgrass (Apera spica-venti)
Method in brief: as §1

[4] = test system: oilseed rape (Brassica napus)
Method in brief: as §1

[5] = test system: buckwheat, wild (wild buckwheat, Polygonum convolvulus)
Method in brief: as §1

[6] = test system: chamomile (scentless chamomile, Matricaria inodora)
Method in brief: as §1

[7] = test system: field violet (Viola arvensis)
Method in brief: as §1

[8] = test system: bromegrass, downy (downy bromegrass, Bromus tectorum)
Method in brief: as §1

[9] = test system: deadnettle (henbit deadnettle, Lamium amplexicaule)
Method in brief: as §1

[10] = test system: foxtail, green (green foxtail, Setaria viridis)
Method in brief: as §1

[11] = test system: wheat, winter (winter wheat, Triticum aestivum)
Method in brief: as §1

[12] = test system: canarygrass (Phalaris minor)
Method in brief: as §1

[13] = test system: ryegrass, Italian (Italian ryegrass, Lolium multiflorum)
Method in brief: as §1

[14] = test system: lambsquarters (Chenopodium album)
Method in brief: as §1

[15] = Postemergence, 31 g ai/ha, scale 0 to 100 (0 no effect, 100 complete control)
[16] = Postemergence, 125 g ai/ha, visual rating on scale 0 (no effect) to 100 (complete control), 14 to 21 d
[17] = Postemergence, 250 g ai/ha, scale 0 to 100 (0 no effect, 100 complete control)
[18] = Preemergence, 62 g ai/ha, scale 0 to 100 (0 no effect, 100 complete control)
[19] = Preemergence, 125 g ai/ha, scale 0 to 100 (0 no effect, 100 complete control)
[20] = Preemergence, 250 g ai/ha, scale 0 to 100, 0 no effect, 100 complete control
[21] = postemergence, 62 g ai/ha, scale 0 to 100, 0 no effect, 100 complete control

Cc1nn(C)c(=O)c(-c2ccc(F)c3ccccc23)c1O [Compound 41]
Galium plant response rating [1, 15]: 100 | Plant response rating, Galium [1, 16]: 100 | Plant response rating, Galium [1, 17]: 100 | Plant response rating (scale of 0 to 100), Galium ([1]; Preemergence, 31 g ai/ha): 75 | Plant response rating, Galium [1, 18]: 85 | Plant response rating, Galium [1, 19]: 95 | Plant response rating, Galium [1, 20]: 100 | Plant response rating, Galium [1, 21]: 100 | Chickweed plant response rating [2, 15]: 98 | Plant response rating, Chickweed [2, 16]: 95 | Plant response rating, Chickweed [2, 17]: 100 | Plant response rating (scale of 0 to 100), Chickweed ([2]; Preemergence, 31 g ai/ha): 90 | Plant response rating, Chickweed [2, 18]: 95 | Plant response rating, Chickweed [2, 19]: 95 | Plant response rating, Chickweed [2, 20]: 95 | Plant response rating, Chickweed [2, 21]: 98 | Windgrass plant response rating [3, 15]: 40 | Plant response rating, Windgrass [3, 16]: 60 | Plant response rating, Windgrass [3, 17]: 75 | Plant response rating (scale of 0 to 100), Windgrass ([3]; Preemergence, 31 g ai/ha): 70 | Plant response rating, Windgrass [3, 18]: 75 | Plant response rating, Windgrass [3, 19]: 80 | Plant response rating, Windgrass [3, 20]: 95 | Plant response rating, Windgrass [3, 21]: 55 | Oilseed Rape plant response rating [4, 15]: 0 | Plant response rating, Oilseed Rape [4, 16]: 25 | Plant response rating, Oilseed Rape [4, 17]: 55 | Plant response rating (scale of 0 to 100), Oilseed Rape ([4]; Preemergence, 31 g ai/ha): 0 | Plant response rating, Oilseed Rape [4, 18]: 5 | Plant response rating, Oilseed Rape [4, 19]: 25 | Plant response rating, Oilseed Rape [4, 20]: 15 | Plant response rating, Oilseed Rape [4, 21]: 5 | Buckwheat, Wild plant response rating [5, 15]: 80 | Plant response rating, Buckwheat, Wild [5, 16]: 95 | Plant response rating, Buckwheat, Wild [5, 17]: 100 | Plant response rating (scale of 0 to 100), Buckwheat, Wild ([5]; Preemergence, 31 g ai/ha): 35 | Plant response rating, Buckwheat, Wild [5, 18]: 55 | Plant response rating, Buckwheat, Wild [5, 19]: 65 | Plant response rating, Buckwheat, Wild [5, 20]: 75 | Plant response rating, Buckwheat, Wild [5, 21]: 90 | Chamomile plant response rating [6, 15]: 75 | Plant response rating, Chamomile [6, 16]: 80 | Plant response rating, Chamomile [6, 17]: 100 | Plant response rating, Chamomile [6, 21]: 75 | Field Violet plant response rating [7, 15]: 100 | Plant response rating, Field Violet [7, 16]: 90 | Plant response rating, Field Violet [7, 17]: 100 | Plant response rating (scale of 0 to 100), Field Violet ([7]; Preemergence, 31 g ai/ha): 95 | Plant response rating, Field Violet [7, 18]: 90 | Plant response rating, Field Violet [7, 19]: 100 | Plant response rating, Field Violet [7, 20]: 100 | Plant response rating, Field Violet [7, 21]: 90 | Bromegrass, Downy plant response rating [8, 15]: 10 | Plant response rating, Bromegrass, Downy [8, 16]: 35 | Plant response rating, Bromegrass, Downy [8, 17]: 45 | Plant response rating (scale of 0 to 100), Bromegrass, Downy ([8]; Preemergence, 31 g ai/ha): 50 | Plant response rating, Bromegrass, Downy [8, 18]: 55 | Plant response rating, Bromegrass, Downy [8, 19]: 70 | Plant response rating, Bromegrass, Downy [8, 20]: 80 | Plant response rating, Bromegrass, Downy [8, 21]: 20 | Deadnettle plant response rating [9, 15]: 85 | Plant response rating, Deadnettle [9, 16]: 80 | Plant response rating, Deadnettle [9, 17]: 100 | Plant response rating (scale of 0 to 100), Deadnettle ([9]; Preemergence, 31 g ai/ha): 35 | Plant response rating, Deadnettle [9, 18]: 90 | Plant response rating, Deadnettle [9, 19]: 100 | Plant response rating, Deadnettle [9, 20]: 100 | Plant response rating, Deadnettle [9, 21]: 100 | Foxtail, Green plant response rating [10, 15]: 45 | Plant response rating, Foxtail, Green [10, 16]: 50 | Plant response rating, Foxtail, Green [10, 17]: 65 | Plant response rating (scale of 0 to 100), Foxtail, Green ([10]; Preemergence, 31 g ai/ha): 45 | Plant response rating, Foxtail, Green [10, 18]: 80 | Plant response rating, Foxtail, Green [10, 19]: 100 | Plant response rating, Foxtail, Green [10, 20]: 100 | Plant response rating, Foxtail, Green [10, 21]: 55 | Wheat, Winter plant response rating [11, 15]: 10 | Plant response rating, Wheat, Winter [11, 16]: 25 | Plant response rating, Wheat, Winter [11, 17]: 35 | Plant response rating (scale of 0 to 100), Wheat, Winter ([11]; Preemergence, 31 g ai/ha): 10 | Plant response rating, Wheat, Winter [11, 18]: 20 | Plant response rating, Wheat, Winter [11, 19]: 45 | Plant response rating, Wheat, Winter [11, 20]: 75 | Plant response rating, Wheat, Winter [11, 21]: 20 | Canarygrass plant response rating [12, 15]: 55 | Plant response rating, Canarygrass [12, 16]: 80 | Plant response rating, Canarygrass [12, 17]: 80 | Plant response rating (scale of 0 to 100), Canarygrass ([12]; Preemergence, 31 g ai/ha): 90 | Plant response rating, Canarygrass [12, 18]: 90 | Plant response rating, Canarygrass [12, 19]: 90 | Plant response rating, Canarygrass [12, 20]: 95 | Plant response rating, Canarygrass [12, 21]: 70 | Ryegrass, Italian plant response rating [13, 15]: 80 | Plant response rating, Ryegrass, Italian [13, 16]: 85 | Plant response rating, Ryegrass, Italian [13, 17]: 90 | Plant response rating (scale of 0 to 100), Ryegrass, Italian ([13]; Preemergence, 31 g ai/ha): 95 | Plant response rating, Ryegrass, Italian [13, 18]: 100 | Plant response rating, Ryegrass, Italian [13, 19]: 100 | Plant response rating, Ryegrass, Italian [13, 20]: 100 | Plant response rating, Ryegrass, Italian [13, 21]: 85 | Lambsquarters plant response rating [14, 15]: 70 | Plant response rating, Lambsquarters [14, 16]: 75 | Plant response rating, Lambsquarters [14, 17]: 85 | Plant response rating (scale of 0 to 100), Lambsquarters ([14]; Preemergence, 31 g ai/ha): 25 | Plant response rating, Lambsquarters [14, 18]: 100 | Plant response rating, Lambsquarters [14, 19]: 100 | Plant response rating, Lambsquarters [14, 20]: 100 | Plant response rating, Lambsquarters [14, 21]: 65
